The test system of one series is LSD1. To be noted: Figure 1, reported LSD1 inhibitors; cited from earlier work.
The next series deals with HepG2 cells. The experiment in a line: MTT cytotoxicity assay, HepG2. To be noted: Homo sapiens, HepG2, 72 h, read-out: In Vitro Cytotoxicity IC50 HepG2. Background: Formazan colour is commonly taken as a measure of viable cells.
The test system of a further series is HCT116 cells. Briefly: MTT cytotoxicity assay, HCT116. Particulars: Homo sapiens, HCT-116, 72 h, read-out: In Vitro Cytotoxicity IC50 HCT116.
For a further series, the system named is MCF-7 cells. Briefly: MTT cytotoxicity assay, MCF-7. To be noted: Homo sapiens, MCF7, 72 h, read-out: In Vitro Cytotoxicity IC50 MCF-7.
Another series has as its target LSD1 demethylase (Homo sapiens, UniProt O60341). Briefly: LSD1 demethylase inhibition assay.
A further series deals with HepG2 and MCF-7 cells. The experiment in a line: DNA fragmentation, diphenylamine test. Particulars: 24 h at IC50 value, untreated control about 4.7 ± 0.2%. The series is classed as cell-based, human. Here is the method:
Apoptosis is characterized by DNA fragmentation, which occurs in all stages of the process. The percentage of fragmented DNA released into the cytoplasm from apoptotic nuclei was determined using a diphenylamine test.
DNA fragmentation was quantitatively determined using a diphenylamine (DPA) reagent according to the method of Boraschi and Maurizi.

A short description of a further series: in vitro. Particulars: human, WI38 normal lung fibroblast cells.
Setting [1] is: LSD1 inhibitory IC50, Table 2, mean ± S.D., at least three tests.
Where [2] appears, read: LSD1 inhibition IC50, as quoted in the docking section.

Description for HCT116 cells: (§1) The in vitro cytotoxic testing of novel derivatives was performed against different three cancer cell lines, HepG2, MCF-7, and HCT116, using standard MTT assay as previously reported [22, 62, 63, 64].
Description for HepG2 cells: as §1
Description for LSD1 demethylase: The inhibition of LSD1 activity by our tested compounds was evaluated according to a previously reported procedure [65, 66, 67, 68] and as mentioned in the assay kit in Supplementary Materials.

For orientation: IC50 means the point on the concentration scale where inhibition reaches its midpoint. On to `CCCSc1nc(Sc2nnc(C)s2)c2nnn(CCO)c2n1` [Compound 7], for which the IC50 in the series with LSD1 was 3.93 µM.
With `Cc1ccc(Cn2cc(CSC(=S)N3CCN(C(=O)OC(C)(C)C)CC3)nn2)cc1` [Compound 8], in the series with LSD1, the half-inhibitory concentration (IC50) was 0.65 µM.
As usually defined, the melting point is the temperature of the solid-liquid transition. Compound `Cn1c(-c2cc(-c3n[nH]c(=S)n3C)cc(-c3n[nH]c(=S)n3C)c2)n[nH]c1=S` [Compound 18, 3,3′,3″-(benzene-1,3,5-triyl)tris(4-methyl-1H-1,2,4-triazole-5(4H)-thione)] came in with a melting point of 279 to 281 °C. Further, the IC50 in the series on HepG2 cells worked out at 26.1 ± 0.76 µM. Also, the IC50 in the series with HCT116 cells came out at 38.6 ± 0.75 µM. In addition, in the series with MCF-7 cells, the IC50 is 23.9 ± 0.52 µM. For the same compound, at LSD1 demethylase (setting [1]), it took 1.51 ± 0.075 µM to reach half-maximal inhibition (IC50).
`CCn1c(-c2cc(-c3n[nH]c(=S)n3CC)cc(-c3n[nH]c(=S)n3CC)c2)n[nH]c1=S` [Compound 19, 3,3′,3″-(benzene-1,3,5-triyl)tris(4-ethyl-1H-1,2,4-triazole-5(4H)-thione)] displayed a melting point of 266 to 268 °C. Also, the IC50 with HepG2 cells was 55.3 ± 0.44 µM. Moreover, the IC50 in the series with HCT116 cells was 21.6 ± 0.16 µM. For the same compound, the IC50 with MCF-7 cells turned out to be 9.66 ± 0.76 µM. On LSD1 demethylase (setting [1]), the 50% inhibitory concentration (IC50) was found to be 0.17 ± 0.008 µM.
As for `S=c1[nH]nc(-c2cc(-c3n[nH]c(=S)n3C3CCCCC3)cc(-c3n[nH]c(=S)n3C3CCCCC3)c2)n1C1CCCCC1` [Compound 20, 3,3′,3″-(benzene-1,3,5-triyl)tris(4-cyclohexyl-1H-1,2,4-triazole-5(4H)-thione)], the melting point lay in the range of 251 to 252 °C. Besides, in the series on HepG2 and MCF-7 cells, the “Percentage of DNA fragmentation” value was “approximately 28.5 ± 1.5%”. Moreover, the IC50 in the series with HepG2 cells was 2.65 ± 0.69 µM. Also, the IC50 in the series with HCT116 cells came to 10.1 ± 0.37 µM. Besides, the IC50 in the series on MCF-7 cells is 13.7 ± 0.41 µM. The compound further displayed an IC50 on LSD1 demethylase (setting [1]) of 0.137 ± 0.006 µM.
Regarding `C=CCn1c(-c2cc(-c3n[nH]c(=S)n3CC=C)cc(-c3n[nH]c(=S)n3CC=C)c2)n[nH]c1=S` [Compound 21, 3,3′,3″-(benzene-1,3,5-triyl)tris(4-allyl-1H-1,2,4-triazole-5(4H)-thione)], the melting point was 287 to 288 °C. Besides, the IC50 in the series with HepG2 cells is 2.36 ± 0.34 µM. Besides, the IC50 with HCT116 cells came to 3.56 ± 0.22 µM. Besides, in the series on MCF-7 cells, the IC50 is 5.83 ± 0.18 µM. At LSD1 demethylase (setting [1]), this compound had an IC50 of 0.32 ± 0.016 µM.
Compound `S=c1[nH]nc(-c2cc(-c3n[nH]c(=S)n3Cc3ccccc3)cc(-c3n[nH]c(=S)n3Cc3ccccc3)c2)n1Cc1ccccc1` [Compound 22, 3,3′,3″-(benzene-1,3,5-triyl)tris(4-benzyl-1H-1,2,4-triazole-5(4H)-thione)] showed a melting point of 240 to 241 °C. Moreover, the IC50 in the series with HepG2 cells was 8.23 ± 0.85 µM. This compound displayed an IC50 at 72 h in the series “in vitro” of 16 ± 0.52 µM. Further, the IC50 in the series on HCT116 cells stood at 5.27 ± 0.16 µM. Moreover, in the series on MCF-7 cells, the IC50 worked out at 2.65 ± 0.23 µM. At LSD1 demethylase (setting [2]), this compound returned a half-maximal inhibitory concentration (IC50) of 0.0464 µM. At LSD1 demethylase (setting [1]), the IC50 came to 0.074 ± 0.002 µM.
Compound `S=c1[nH]nc(-c2cc(-c3n[nH]c(=S)n3-c3ccccc3)cc(-c3n[nH]c(=S)n3-c3ccccc3)c2)n1-c1ccccc1` [Compound 23, 3,3′,3″-(benzene-1,3,5-triyl)tris(4-phenyl-1H-1,2,4-triazole-5(4H)-thione)] gave a melting point of 229 to 230 °C. For the same compound, the IC50 in the series with HepG2 cells was determined as 5.49 ± 0.38 µM. The IC50 with HCT116 cells is 2.01 ± 0.91 µM. For the same compound, the IC50 in the series with MCF-7 cells was determined as 26.1 ± 0.69 µM. The compound also had a half-inhibitory concentration (IC50) against LSD1 demethylase (setting [2]) of 0.0651 µM. For the same compound, the half-maximal inhibitory concentration (IC50) against LSD1 demethylase (setting [1]) was 0.065 ± 0.003 µM.
In turn, `CNc1nnc(-c2cc(-c3nnc(NC)s3)cc(-c3nnc(NC)s3)c2)s1` [Compound 24, 5,5′,5″-(benzene-1,3,5-triyl)tris(N-methyl-1,3,4-thiadiazol-2-amine)] returned a melting point of 247 to 248 °C. Further, the IC50 in the series with HepG2 cells is 6.47 ± 0.69 µM. The IC50 in the series on HCT116 cells was determined as 18.1 ± 1.05 µM. Besides, in the series with MCF-7 cells, the IC50 is 9.2 ± 0.31 µM. The compound further showed an IC50 against LSD1 demethylase (setting [1]) of 0.45 ± 0.022 µM.
The like results for `CCNc1nnc(-c2cc(-c3nnc(NCC)s3)cc(-c3nnc(NCC)s3)c2)s1` [Compound 25, 5,5′,5″-(benzene-1,3,5-triyl)tris(N-ethyl-1,3,4-thiadiazol-2-amine)] were, in that order, 233 to 234 °C, 13 ± 0.71 µM, 28.9 ± 0.32 µM, 28.1 ± 1.1 µM and 0.14 ± 0.007 µM.
The like results for `c1c(-c2nnc(NC3CCCCC3)s2)cc(-c2nnc(NC3CCCCC3)s2)cc1-c1nnc(NC2CCCCC2)s1` [Compound 26, 5,5′,5″-(benzene-1,3,5-triyl)tris(N-cyclohexyl-1,3,4-thiadiazol-2-amine)] were, in that order, 218 to 219 °C, 95.7 ± 3.1 µM, 17.6 ± 0.71 µM, 17.1 ± 3.1 µM and 0.311 ± 0.015 µM.
Compound `c1ccc(Nc2nnc(-c3cc(-c4nnc(Nc5ccccc5)s4)cc(-c4nnc(Nc5ccccc5)s4)c3)s2)cc1` [Compound 28, 5,5′,5″-(benzene-1,3,5-triyl)tris(N-phenyl-1,3,4-thiadiazol-2-amine)] had a melting point of 204 to 205 °C. The IC50 in the series with HepG2 cells was 25.6 ± 0.18 µM. The IC50 with HCT116 cells was 110 ± 0.85 µM. The IC50 in the series on MCF-7 cells worked out at 2.34 ± 2.3 µM. The compound also yielded an IC50 against LSD1 demethylase (setting [1]) of 0.21 ± 0.01 µM.
In the case of `CC(=O)O[C@H]1C(=O)[C@@]2(C)[C@H]([C@H](OC(=O)c3ccccc3)[C@]3(O)C[C@H](OC(=O)[C@H](O)[C@@H](NC(=O)c4ccccc4)c4ccccc4)C(C)=C1C3(C)C)[C@]1(OC(C)=O)CO[C@@H]1C[C@@H]2O` [Taxol, reference compound], the IC50 worked out at 4.44 ± 0.24 µM in the series with HepG2 cells, 7.96 ± 0.38 µM in the series on HCT116 cells and 7.8 ± 0.42 µM in the series with MCF-7 cells. Besides, the IC50 at 72 h in the series “in vitro” came out at 11.8 ± 0.44 µM.

The record behind these values is PMC9369007 (International Journal of Molecular Sciences, 2022).
